Where two headings read alike, the source gives them in different places.
Tests used:
[1] = test system: HIV-1 constructs containing mutant IN N155H; assay: microbe, parasite or virus in culture; assay type: cell-based; settings: for EC50: Human immunodeficiency virus 1
Description: (§1) Single-Round HIV-1 Infectivity Assay.
(§2) Human embryonyl kidney cell culture cell line 293 was acquired from the American type Culture Collection (ATCC).
(§3) The virus-containing supernatants were then harvested, clarified by low-speed centrifugation, filtrated, and diluted for preparation in infection assays. […] Activity was normalized to infectivity in the absence of target compounds. KaleidaGraph (Synergy Software, Reading, Pa.) was used to perform regression analysis on the data. EC50 values were determined from the fit model.
(§4) pNLNgoMIVR^−ΔEnv.LUC has been described previously (Zhao et al. 2008). The integrase codon reading frame was removed from pNLNgoMIVR^−ΔEnv LUC (between KpnI and SalI sites) and placed between the KpnI and SalI sites of pBluescript II KS+. Using that construct as the wild-type template, we prepared the following HIV-1 Integrase-resistant mutants via the QuikChange II XL (Stratagene, La Jolla, Calif.) site-directed mutagenesis protocol: H51Y, T66I, E92Q, G118R, Y143R, Q148H, Q148K, N155H, R263K, G140S+Q148H, G140A+Q148K, E138K+Q148K, and H51Y+R263K. The following sense with cognate antisense (not shown) oligonucleotides (Integrated DNA Technologies, Coralville, Iowa) were used in the mutagenesis: H51Y, 5′-[…]-3; T66I, 5′-[…]-3′; E92Q, 5′-[…]-3′; G118R, 5′-[…]-3′; E138K, 5′-[…]-3; G140A, 5′-[…]-3; G140S, 5′-[…]-3′; Y143R, 5′-[…]-3′; Q148H, 5′-[…]-3′; Q148K, 5′-[…]-3; N155H, 5′-[…]-3′; R263K 5′-[…]-3′. The double mutation G140S+Q148H was constructed by using the previously generated Q148H mutant and the appropriate oligonucleotide for the 2nd mutation, G140S. The double mutation G140A+Q148K was made by using the Q148K mutant and the appropriate oligonucleotide for the 2nd mutation, G140A. The double mutation E138K+Q148K was made by using the Q148K mutant and the appropriate oligonucleotide for the 2nd mutation, E138K. The double mutation H51Y+R263K was constructed by using the previously generated H51Y mutant and the appropriate oligonucleotides for the 2nd mutation, R263K. The DNA sequence of each construct was verified independently by DNA sequence determination. […] These DNA sequences were additionally checked independently by DNA sequence determination.

[2] = test system: HIV-1 constructs containing mutant IN G140S-Q148H; assay: microbe, parasite or virus in culture; assay type: cell-based; settings: for EC50: Human immunodeficiency virus 1
Description: as §1, §2, §3, §4

[3] = test system: HIV-1 constructs containing mutant IN Y143R; assay: microbe, parasite or virus in culture; assay type: cell-based; settings: for EC50: Human immunodeficiency virus 1
Description: as §1, §2, §3, §4

[4] = test system: HIV-1 constructs containing wild-type IN; assay: microbe, parasite or virus in culture; assay type: cell-based; settings: for EC50: Human immunodeficiency virus 1
Description: as §1, §2, §3

in vitro = assay type: cell-based, human; settings: human, 50% reduction in the level of ATP in HOS cells
Experimental: Cellular Cytotoxicity Assay.
On the day of the screen, cells were treated with compounds at the appropriate concentration range chosen and incubated at 37° C. for 48 hrs. Cytotoxicity was measured by monitoring ATP levels via a luciferase reporter assay. Cells were lysed in 50 μL cell lysis buffer (PerkinElmer, Waltham, Mass.) and shaken at 700 rpm at room temperature for 5 mins After the addition of 50 μL of ATPlite buffer (PerkinElmer) directly onto the lysed cells and shaking at 700 rpm at room temperature for 5 mins, ATP levels were monitored by measuring luciferase activity using a microplate reader. Activity was normalized to cytotoxicity in the absence of target compounds. KaleidaGraph (Synergy Software, Reading, Pa.) was used to perform regression analysis on the data. CC50 values were determined from the fit model.

HIV-1 integrase = HIV-1 integrase (Human immunodeficiency virus type 1 group M subtype B, UniProt P12497); assay: biochemical; assay type: biochemical
Method in brief: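 Compounds or DMSO added to 20 nM DNA and 400 nM integrase in 50 mM MOPS pH 7.2, 7.5 mM MgCl2, 14 mM 2-mercaptoethanol; 2 h at 37° C, quenched with formamide/SDS loading buffer. Products resolved on gels, imaged and quantified by densitometry.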

[5] = Table 8, read-out: EC50 (nM, IN mutants) N155H
[6] = Table 8, read-out: EC50 (nM, IN mutants) G140S/Q148H
[7] = Table 8, read-out: EC50 (nM, IN mutants) Y143R
[8] = Table 8, WT IN, read-out: EC50 (nM, WT)
[9] = Table 7, 3′-processing, read-out: IC50 (μM) 3′-P
[10] = Table 7, strand transfer, read-out: IC50 (μM) ST
[11] = Table 3, read-out: EC50 (nM, IN Mutants) N155H
[12] = Table 3, G140S-Q148H double mutant, read-out: EC50 (nM, IN Mutants) SH
[13] = Table 3, read-out: EC50 (nM, IN Mutants) Y143R
[14] = Table 3, WT IN, read-out: EC50 (nM, WT)
[15] = Table 4, 3′-processing, read-out: IC50 (3^+-Processing)
[16] = Table 4, strand transfer, read-out: IC50 (Strand Transfer)

| Compound | EC50 [1, 5] [nM] | EC50 [2, 6] [nM] | EC50 [3, 7] [nM] | EC50 [4, 8] [nM] | CC50 (in vitro; Table 8) [µM] | IC50 (HIV-1 integrase; [9]) [µM] | IC50 (HIV-1 integrase; [10]) [µM] | also measured |
| --- | --- | --- | --- | --- | --- | --- | --- | --- |
| COC(=O)CNc1c(C(=O)NCc2ccc(F)cc2F)c(=O)n(O)c2ncc(CCCCCO)cc12 [XZ431, Methyl 2-((3-((2,4-difluorobenzyl)carbamoyl)-1-hydroxy-6-(5-hydroxypentyl)-2-oxo-1,2-dihydro-1,8-naphthyridin-4-yl)amino)acetate] | 11.1 | 41.6 | 3.5 | 3.3 | > 250 | 2.1 ± 0.5 | 0.0037 ± 0.0007 | – |
| O=C(NCc1ccc(F)cc1F)c1c(N2CCOCC2)c2cccnc2n(O)c1=O [XZ373, N-(2,4-difluorobenzyl)-1-hydroxy-4-morpholino-2-oxo-1,2-dihydro-1,8-naphthyridine-3-carboxamide] | – | – | – | – | – | – | – | EC50 [1, 11]: 3730 ± 920 nM; EC50 [2, 12]: 6920 ± 2 nM; EC50 [3, 13]: 1800 ± 870 nM; EC50 [4, 14]: 1200 ± 260 nM; Si (selectivity index) ([4]; Table 3, ratio of CC50 to EC50): 7; CC50 (in vitro; Table 3): 8.4 ± 3.2 µM; IC50 (HIV-1 integrase; [15]): 77 ± 12 µM; IC50 (HIV-1 integrase; [16]): 0.079 ± 0.013 µM |
| COc1ccc2c(N)c(C(=O)NCc3ccc(F)cc3F)c(=O)n(O)c2n1 [XZ406, 4-amino-N-(2,4-difluorobenzyl)-1-hydroxy-7-methoxy-2-oxo-1,2-dihydro-1,8-naphthyridine-3-carboxamide] | – | – | – | – | – | – | – | EC50 ([1]; Table 5, read-out: EC50 (nM, IN Mutants) N155H): 400 ± 101 nM; EC50 ([2]; Table 5, G1405-Q148H double mutant, read-out: EC50 (nM, IN Mutants) SH): 3600 ± 1600 nM; EC50 ([3]; Table 5, read-out: EC50 (nM, IN Mutants) Y143R): 62.2 ± 25.6 nM; EC50 ([4]; Table 5, WT IN, read-out: EC50 (nM, WT)): 30.3 ± 9.1 nM; SI ([4]; Table 5, ratio of CC50 to EC50): 73; CC50 (in vitro; Table 5): 2.2 ± 0.43 µM; IC50 (HIV-1 integrase; [15]): 18 ± 2 µM; IC50 (HIV-1 integrase; [16]): 0.011 ± 0.002 µM |
| Nc1c(C(=O)NCc2ccc(F)cc2F)c(=O)n(O)c2ncc(CCCOCCO)cc12 [XZ432, 4-Amino-N-(2,4-difluorobenzyl)-1-hydroxy-6-(3-(2-hydroxyethoxy)propyl)-2-oxo-1,2-dihydro-1,8-naphthyridine-3-carboxamide] | 4.2 | 35.3 | 1.2 | 1.6 | > 250 | 1.5 ± 0.4 | 0.0025 ± 0.0004 | – |
| CN(C)CCCc1cnc2c(c1)c(N)c(C(=O)NCc1ccc(F)cc1F)c(=O)n2O [XZ425, 4-Amino-N-(2,4-difluorobenzyl)-6-(3-(dimethylamino)propyl)-1-hydroxy-2-oxo-1,2-dihydro-1,8-naphthyridine-3-carboxamide] | 29.4 | 31.7 | 7 ± 2.3 | 6.07 | 5 | 3 ± 0.4 | 0.0143 ± 0.0022 | – |
| O=C(NCc1ccc(F)c(F)c1)c1c(O)c2cccnc2n(O)c1=O [XZ367, N-(3,4-difluorobenzyl)-1,4-dihydroxy-2-oxo-1,2-dihydro-1,8-naphthyridine-3-carboxamide] | – | – | – | – | – | – | – | Integrase Mutants N155H, fold-change in EC50 relative to WT [1]: 9 x; EC50 [1, 11]: 189 ± 70.1 nM; Integrase Mutants SH (G140S-Q148H), fold-change in EC50 relative to WT [2]: 25 x; EC50 [2, 12]: 507 ± 125 nM; Integrase Mutants Y143R, fold-change in EC50 relative to WT [3]: 2 x; EC50 [3, 13]: 44.5 ± 12.2 nM; SI [4]: 9,585; Si (selectivity index) [4]: 9,585; EC50 ([4]; Table 2, cells infected with lentiviral vector harboring WT IN, read-out: EC50): 20 nM; EC50 [4, 14]: 20 ± 6.2 nM; CC50 (in vitro; Table 2): 192 µM; CC50 (in vitro; Table 3): 192 ± 19 µM; IC50 (HIV-1 integrase; Table 1, 3′-processing, read-out: IC50 Values 3′-Processing): 3.6 ± 0.6 µM; IC50 (HIV-1 integrase; Table 1, strand transfer, read-out: IC50 Values Strand transfer): 0.04 ± 0.01 µM |
| Nc1c(C(=O)NCc2ccc(F)cc2F)c(=O)n(O)c2ncc(CCCCCCOC(=O)c3ccccc3)cc12 [XZ427, 6-(5-Amino-6-((2,4-difluorobenzyl)carbamoyl)-8-hydroxy-7-oxo-7,8-dihydro-1,8-naphthyridin-3-yl)hexyl benzoate] | 5.4 | 21 | 3.5 | 4.8 | 14.4 | 143 ± 14 | 3.34 ± 0.557 | – |
| Nc1c(C(=O)NCc2ccc(F)cc2F)c(=O)n(O)c2ncc(Br)cc12 [XZ418, 4-Amino-6-bromo-N-(2,4-difluorobenzyl)-1-hydroxy-2-oxo-1,2-dihydro-1,8-naphthyridine-3-carboxamide] | 18.8 | 112 | 1.95 | 0.99 | > 250 | 7.9 ± 0.8 | 0.0032 ± 0.0005 | – |
| CN(C)c1c(C(=O)NCc2ccc(F)cc2F)c(=O)n(O)c2ncccc12 [XZ372, N-(2,4-difluorobenzyl)-4-(dimethylamino)-1-hydroxy-2-oxo-1,2-dihydro-1,8-naphthyridine-3-carboxamide] | – | – | – | – | – | – | – | EC50 [1, 11]: 2300 ± 700 nM; EC50 [2, 12]: 6800 ± 0.4 nM; EC50 [3, 13]: 273 ± 51.7 nM; EC50 [4, 14]: 268 ± 8.03 nM; Si (selectivity index) ([4]; Table 3, ratio of CC50 to EC50): 49; CC50 (in vitro; Table 3): 13 ± 1.8 µM; IC50 (HIV-1 integrase; [15]): 21 ± 2 µM; IC50 (HIV-1 integrase; [16]): 0.087 ± 0.012 µM |
| Nc1c(C(=O)NCc2ccc(F)cc2F)c(=O)n(O)c2ncc(CCC(=O)O)cc12 [XZ444, 3-(5-Amino-6-((2,4-difluorobenzyl)carbamoyl)-8-hydroxy-7-oxo-7,8-dihydro-1,8-naphthyridin-3-yl)propanoic acid] | 10.3 | 195 | 4.9 | 1.9 | > 250 | – | – | IC50 (HIV-1 integrase; Table 10, strand transfer, read-out: IC50 (nM, ST)): 0.0039 ± 0.0013 µM |
| Nc1c(C(=O)NCc2ccc(F)cc2F)c(=O)n(O)c2ncc(CCCCc3ccccc3)cc12 [XZ429, 4-Amino-N-(2,4-difluorobenzyl)-1-hydroxy-2-oxo-6-(4-phenylbutyl)-1,2-dihydro-1,8-naphthyridine-3-carboxamide] | 38.8 | 128 | 4.7 | 10.6 | 12.8 | 42 ± 4 | 1.98 ± 0.422 | – |
| Nc1c(C(=O)NCc2ccc(F)cc2F)c(=O)n(O)c2ncc(-c3ccccc3)cc12 [XZ420, 4-Amino-N-(2,4-difluorobenzyl)-1-hydroxy-2-oxo-6-phenyl-1,2-dihydro-1,8-naphthyridine-3-carboxamide] | 18.7 | 39.6 | 3.7 | 3.4 ± 0.7 | 184 | 17.9 ± 1.6 | 0.0016 ± 0.0003 | – |
| Nc1c(C(=O)NCc2ccc(F)cc2F)c(=O)n(O)c2ncc(CCc3ccccc3)cc12 [XZ430, 4-Amino-N-(2,4-difluorobenzyl)-1-hydroxy-2-oxo-6-phenethyl-1,2-dihydro-1,8-naphthyridine-3-carboxamide] | 21.1 | 140 | 5.5 | 5.6 | 17.6 | 48 ± 4 | 0.0145 ± 0.0034 | – |
